From patent US20100130469A1, “2, 6-NAPHTHRIDINE DERIVATIVES” (priority 2007, published 2010)

Assays:
PKCθ = PKCθ (Homo sapiens, UniProt Q04759); test: Protein Kinase C θ assay; type: biochemical; conditions: ratio of IC50 values
Procedure: (§1) The compounds of the invention are tested for their activity on different PKC isotypes according to the following method. Assay is performed in a white with clear bottom 384-well microtiterplate with non-binding surface. The reaction mixture (25 μl) contains 1.5 μM of a tridecapeptide acceptor substrate that mimics the pseudo substrate sequence of PKC a with the Ala→Ser replacement, 10 μM ^33P-ATP, 10 mM Mg(NO3)2, 0.2 mM CaCl2, PKC at a protein concentration varying from 25 to 400 ng/ml (depending on the isotype used), lipid vesicles (containing 30 mol % phosphatidylserine, 5 mol % DAG and 65 mol % phosphatidylcholine) at a final lipid concentration of 0.5 mM, in 20 mM Tris-HCl buffer pH 7.4+0.1% BSA. Incubation is performed for 60 min at room temperature.
Human recombinant PKCθ is used under the assay conditions as described above.

PKCα = molecular target: T1, PKCα (Homo sapiens, UniProt P17252); test: Protein Kinase Cα assay; type: biochemical; conditions: ratio of IC50 values
T1 construct: purchased Oxford Biomedical Research
Procedure: as §1
Human recombinant PKCα was obtained from Oxford Biomedical Research and is used under the assay conditions as described under Section A.1 above.

PKCβ1 = molecular target: T2, PKCβ1 (Homo sapiens, UniProt P05771); test: Protein Kinase Cβ1 assay; type: biochemical; conditions: ratio of IC50 values
T2 construct: purchased Oxford Biomedical Research
Procedure: as §1
Human recombinant PKCβ1 was obtained from Oxford Biomedical Research and is used under the assay conditions as described under Section A.1 above.

PKCδ = molecular target: T3, PKCδ (Homo sapiens, UniProt Q05655); test: Protein Kinase Cδ assay; type: biochemical; conditions: ratio of IC50 values
T3 construct: purchased Oxford Biomedical Research
Procedure: as §1
Human recombinant PKC was obtained from Oxford Biomedical Research and is used under the assay conditions as described under Section A.1 above.

PKCε = molecular target: T4, PKCε (Homo sapiens, UniProt Q02156); test: Protein Kinase Cε assay; type: biochemical; conditions: ratio of IC50 values
T4 construct: purchased Oxford Biomedical Research
T4 sequence (Q02156 1-737): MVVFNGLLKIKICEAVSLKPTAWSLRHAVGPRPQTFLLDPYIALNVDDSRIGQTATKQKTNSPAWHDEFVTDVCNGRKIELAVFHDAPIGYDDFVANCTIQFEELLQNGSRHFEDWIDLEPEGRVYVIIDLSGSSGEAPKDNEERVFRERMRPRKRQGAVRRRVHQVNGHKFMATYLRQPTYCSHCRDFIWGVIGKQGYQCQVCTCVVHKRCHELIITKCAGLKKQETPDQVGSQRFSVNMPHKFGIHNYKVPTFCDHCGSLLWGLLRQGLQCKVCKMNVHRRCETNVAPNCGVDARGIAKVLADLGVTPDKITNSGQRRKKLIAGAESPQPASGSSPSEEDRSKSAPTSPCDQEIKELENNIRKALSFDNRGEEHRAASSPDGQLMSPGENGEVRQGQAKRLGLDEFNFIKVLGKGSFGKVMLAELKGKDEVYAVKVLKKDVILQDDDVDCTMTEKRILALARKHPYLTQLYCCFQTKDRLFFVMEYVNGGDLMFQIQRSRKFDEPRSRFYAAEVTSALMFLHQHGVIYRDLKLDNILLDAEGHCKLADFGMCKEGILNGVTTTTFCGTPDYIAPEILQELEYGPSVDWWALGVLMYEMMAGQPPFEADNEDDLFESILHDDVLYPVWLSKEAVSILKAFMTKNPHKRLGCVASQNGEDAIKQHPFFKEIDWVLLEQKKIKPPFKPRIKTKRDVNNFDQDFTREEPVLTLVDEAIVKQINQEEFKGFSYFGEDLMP
Procedure: as §1
Human recombinant PKCη was obtained from Oxford Biomedical Research and is used under the assay conditions as described under Section A.1 above.

[1] = system: Bone marrow cells from CBA mice; test: Bone Marrow Cell Proliferation (BM) assay; type: cell-based; conditions: mouse cells
Procedure: Bone marrow cells from CBA mice (2.5×10^4 cells per well in flat bottom tissue culture microtiter plates) are incubated in 100 μL RPMI medium containing 10% FCS, 100 U/mL penicillin, 100 μg/mL streptomycin (Gibco BRL, Baselm Switzerland), 50 μM 2-mercaptoethanol (Fluka, Buchs, Switzerland), WEHI-3 conditioned medium (7.5% v/v) and L929 conditioned medium (3% v/v) as a source of growth factors and serially diluted compounds. Seven three-fold dilution steps in duplicates per test compounds are performed. After four days of incubation 1 μCi ^3H-thymidine is added. Cells are harvested after an additional five-hour incubation period, and incorporated ^3H-thymidine is determined according to standard procedures. Conditioned media are prepared as follows. WEHI-3 cells (ATCC TIB68) and L929 cells (ATCC CCL 1) are grown in RPMI medium until confluence for 4 days and one week, respectively. Cells are harvested, resuspended in the same culture flasks in medium C containing 1% FCS (Schreier and Tess 1981) for WEHI-3 cells and RPMI medium for L929 cells and incubated for 2 days (WEHI-3) or one week (L929). The supernatant is collected, filtered through 0.2 μm and stored in aliquots at −80° C. Cultures without test compounds and without WEHI-3 and L929 supernatants are used as low control values. Low control values are substracted from all values. […]

PKCη = molecular target: T5, PKCη (Homo sapiens, UniProt P24723); test: Protein Kinase Cη assay; type: biochemical; conditions: human recombinant PKCη
T5 construct: purchased PanVera
Procedure: as §1
Human recombinant PKCη was obtained from PanVera and is used under the assay conditions as described under Section A.1 above.

T2 sequence (P05771 whole entry): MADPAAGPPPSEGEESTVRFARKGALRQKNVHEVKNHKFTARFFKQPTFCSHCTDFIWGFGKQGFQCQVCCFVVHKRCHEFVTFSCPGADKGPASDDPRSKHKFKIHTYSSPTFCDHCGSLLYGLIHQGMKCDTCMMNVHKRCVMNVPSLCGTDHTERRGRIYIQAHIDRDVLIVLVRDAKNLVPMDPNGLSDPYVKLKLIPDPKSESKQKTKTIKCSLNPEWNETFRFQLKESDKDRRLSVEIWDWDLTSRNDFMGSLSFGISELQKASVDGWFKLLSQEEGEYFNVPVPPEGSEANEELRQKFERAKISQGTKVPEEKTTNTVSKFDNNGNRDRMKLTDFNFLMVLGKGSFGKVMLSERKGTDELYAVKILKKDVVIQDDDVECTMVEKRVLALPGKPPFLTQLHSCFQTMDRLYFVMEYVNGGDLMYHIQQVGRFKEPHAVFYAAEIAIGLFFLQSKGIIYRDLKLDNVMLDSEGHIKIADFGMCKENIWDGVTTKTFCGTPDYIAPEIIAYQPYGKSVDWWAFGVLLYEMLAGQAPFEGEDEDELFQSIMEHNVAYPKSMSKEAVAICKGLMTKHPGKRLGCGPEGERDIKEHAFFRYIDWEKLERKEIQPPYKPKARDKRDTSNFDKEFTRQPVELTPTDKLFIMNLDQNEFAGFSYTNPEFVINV
PKCθ, sequence (Q04759 whole entry): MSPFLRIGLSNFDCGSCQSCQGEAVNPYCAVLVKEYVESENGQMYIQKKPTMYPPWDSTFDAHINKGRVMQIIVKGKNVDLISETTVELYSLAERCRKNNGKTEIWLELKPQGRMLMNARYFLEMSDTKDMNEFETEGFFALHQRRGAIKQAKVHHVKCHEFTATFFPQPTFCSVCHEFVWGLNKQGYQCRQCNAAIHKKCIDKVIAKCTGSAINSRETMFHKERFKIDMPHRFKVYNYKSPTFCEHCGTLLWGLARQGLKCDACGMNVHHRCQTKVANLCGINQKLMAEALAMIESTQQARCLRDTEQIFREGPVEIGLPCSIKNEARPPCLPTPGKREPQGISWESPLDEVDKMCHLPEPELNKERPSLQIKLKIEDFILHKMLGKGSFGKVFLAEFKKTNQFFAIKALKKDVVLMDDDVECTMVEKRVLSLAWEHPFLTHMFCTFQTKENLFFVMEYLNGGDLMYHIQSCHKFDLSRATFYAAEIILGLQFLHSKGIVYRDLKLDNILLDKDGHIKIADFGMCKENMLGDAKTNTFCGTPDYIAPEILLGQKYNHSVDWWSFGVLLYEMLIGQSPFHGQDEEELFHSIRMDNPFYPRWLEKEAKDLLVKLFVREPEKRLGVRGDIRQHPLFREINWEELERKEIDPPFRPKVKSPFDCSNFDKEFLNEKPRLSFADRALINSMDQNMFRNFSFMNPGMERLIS
T3 sequence (Q05655 whole entry): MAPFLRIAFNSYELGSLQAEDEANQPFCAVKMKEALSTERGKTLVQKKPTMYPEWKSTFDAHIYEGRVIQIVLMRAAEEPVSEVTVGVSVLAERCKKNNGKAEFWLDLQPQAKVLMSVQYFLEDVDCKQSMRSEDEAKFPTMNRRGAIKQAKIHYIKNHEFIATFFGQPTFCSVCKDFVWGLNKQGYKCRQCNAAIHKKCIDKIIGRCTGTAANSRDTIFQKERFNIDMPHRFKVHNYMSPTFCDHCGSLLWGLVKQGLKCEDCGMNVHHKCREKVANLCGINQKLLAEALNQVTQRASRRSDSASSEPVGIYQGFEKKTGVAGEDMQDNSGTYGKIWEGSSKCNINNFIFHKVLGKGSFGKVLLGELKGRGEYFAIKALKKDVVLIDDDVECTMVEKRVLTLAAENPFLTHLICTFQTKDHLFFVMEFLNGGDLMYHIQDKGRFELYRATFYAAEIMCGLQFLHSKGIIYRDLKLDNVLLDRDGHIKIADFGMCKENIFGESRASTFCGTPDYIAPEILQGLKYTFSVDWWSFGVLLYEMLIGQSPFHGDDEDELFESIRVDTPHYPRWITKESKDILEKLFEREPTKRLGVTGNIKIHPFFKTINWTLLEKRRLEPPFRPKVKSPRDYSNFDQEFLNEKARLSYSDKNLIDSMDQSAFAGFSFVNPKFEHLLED
T5 sequence (P24723 whole entry): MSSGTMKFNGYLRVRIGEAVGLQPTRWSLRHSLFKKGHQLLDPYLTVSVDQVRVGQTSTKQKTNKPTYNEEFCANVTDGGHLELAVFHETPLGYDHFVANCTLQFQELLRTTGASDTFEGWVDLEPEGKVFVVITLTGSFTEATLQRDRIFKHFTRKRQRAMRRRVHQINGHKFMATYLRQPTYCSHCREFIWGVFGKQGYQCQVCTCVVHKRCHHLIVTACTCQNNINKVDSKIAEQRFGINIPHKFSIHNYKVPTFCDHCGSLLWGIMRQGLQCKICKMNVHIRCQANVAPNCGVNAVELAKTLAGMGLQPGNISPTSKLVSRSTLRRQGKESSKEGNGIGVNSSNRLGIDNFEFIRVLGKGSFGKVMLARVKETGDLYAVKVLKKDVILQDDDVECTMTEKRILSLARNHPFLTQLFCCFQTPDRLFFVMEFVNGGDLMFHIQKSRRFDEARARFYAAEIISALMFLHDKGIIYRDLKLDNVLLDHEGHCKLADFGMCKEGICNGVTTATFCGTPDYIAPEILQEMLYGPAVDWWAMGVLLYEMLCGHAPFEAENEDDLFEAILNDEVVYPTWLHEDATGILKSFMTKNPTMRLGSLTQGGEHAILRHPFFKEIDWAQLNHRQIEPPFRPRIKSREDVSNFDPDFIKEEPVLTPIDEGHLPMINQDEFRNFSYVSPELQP

θ/η: ratio of the IC50 value for PKCθ to the IC50 value for PKCη (PKCθ)	α/η: ratio of the IC50 value for PKCα to the IC50 value for PKCη (PKCα)	β/η: ratio of the IC50 value for PKC β to the IC50 value for PKCη (PKCβ1)	δ/η: ratio of the IC50 value for PKCδ to the IC50 value for PKCη (PKCδ)	ε/η: ratio of the IC50 value for PKCε to the IC50 value for PKCη (PKCε)	IC50 (PKCη)	SMILES	BM/MLR: ratio of IC50 values of BM assay and MLR assay [1]
26	17	14	15	1	–	C[C@@H]1CN(c2nc(-c3ccncc3)cc3cnccc23)[C@@H](C)CN1 (racemic) [Example 23, Rac-1-((2S,5R)-2,5-Dimethyl-piperazin-1-yl)-3-pyridin-4-yl-[2,6]naphthyridine]	24
30	506	196	4	3	–	C[C@H](N)CNc1nc(-c2ccncc2)cc2cnccc12 [Example 71a, (S)—N*1*-(3-Pyridin-4-yl-[2,6]naphthyridin-1-yl)-propane-1,2-diamine]	30
–	–	–	–	–	162 nM	CC(C)(N)COc1nc(-c2ccncc2)cc2cnccc12 [Example 81, 1,1-Dimethyl-2-(3-pyridin-4-yl-[2,6]naphthyridin-1-yloxy)-ethylamine]	–
–	–	–	–	–	54 nM	CC(C)(N)CNc1cc(-c2ccncc2)cc2cnccc12 [Example 83, 2-Methyl-N*1*-(7-pyridin-4-yl-isoquinolin-5-yl)-propane-1,2-diamine]	–
